Reference: PubChem BioAssay (NCI)
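48-hour exposure; five concentrations; linearly interpolated endpoints. TGI is the concentration that stops growth completely.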

Key:
Assay in all cases: NCI tumour cell line growth inhibition, 48 h
786-0 renal = system: 786-0 renal
A498 renal = system: A498 renal
A549 NSCLC = system: A549 NSCLC
ACHN renal = system: ACHN renal
CAKI-1 renal = system: CAKI-1 renal
CCRF-CEM leukemia = system: CCRF-CEM leukemia
COLO 205 colon = system: COLO 205 colon
DU-145 prostate = system: DU-145 prostate
EKVX NSCLC = system: EKVX NSCLC
HCC-2998 colon = system: HCC-2998 colon
HCT-116 colon = system: HCT-116 colon
HCT-15 colon = system: HCT-15 colon
HL-60(TB) leukemia = system: HL-60(TB) leukemia
HOP-62 NSCLC = system: HOP-62 NSCLC
HOP-92 NSCLC = system: HOP-92 NSCLC
HS 578T breast = system: HS 578T breast
HT29 colon = system: HT29 colon
IGROV1 ovarian = system: IGROV1 ovarian
K-562 leukemia = system: K-562 leukemia
KM12 colon = system: KM12 colon
LOX IMVI melanoma = system: LOX IMVI melanoma
M14 melanoma = system: M14 melanoma
MALME-3M melanoma = system: MALME-3M melanoma
MCF7 breast = system: MCF7 breast
MDA-MB-435 = system: MDA-MB-435
MDA-N = system: MDA-N
MOLT-4 leukemia = system: MOLT-4 leukemia
NCI-H226 lung = system: NCI-H226 lung
NCI-H23 lung = system: NCI-H23 lung
NCI-H460 lung = system: NCI-H460 lung
NCI-H522 lung = system: NCI-H522 lung
NCI/ADR-RES ovarian = system: NCI/ADR-RES ovarian
OVCAR-3 ovarian = system: OVCAR-3 ovarian
OVCAR-4 ovarian = system: OVCAR-4 ovarian
OVCAR-5 ovarian = system: OVCAR-5 ovarian
PC-3 prostate = system: PC-3 prostate
RPMI-8226 leukemia = system: RPMI-8226 leukemia
RXF 393 renal = system: RXF 393 renal
SF-268 CNS = system: SF-268 CNS
SF-295 CNS = system: SF-295 CNS
SF-539 CNS = system: SF-539 CNS
SK-MEL-2 melanoma = system: SK-MEL-2 melanoma
SK-MEL-28 melanoma = system: SK-MEL-28 melanoma
SK-MEL-5 melanoma = system: SK-MEL-5 melanoma
SK-OV-3 ovarian = system: SK-OV-3 ovarian
SN12C renal = system: SN12C renal
SNB-19 CNS = system: SNB-19 CNS
SR leukemia = system: SR leukemia
SW-620 colon = system: SW-620 colon
T-47D breast = system: T-47D breast
TK-10 renal = system: TK-10 renal
U251 CNS = system: U251 CNS
UACC-257 melanoma = system: UACC-257 melanoma
UACC-62 melanoma = system: UACC-62 melanoma
UO-31 renal = system: UO-31 renal
MDA-MB-231 breast = system: MDA-MB-231 breast
OVCAR-8 ovarian = system: OVCAR-8 ovarian
SNB-75 CNS = system: SNB-75 CNS

Measured: TGI

CN(C)CCNC(=O)Cn1ccc(=O)c2ccc([N+](=O)[O-])cc21
> 100 µM: 786-0 renal | A498 renal | A549 NSCLC | ACHN renal | CAKI-1 renal | CCRF-CEM leukemia | COLO 205 colon | DU-145 prostate | EKVX NSCLC | HCC-2998 colon | HCT-116 colon | HCT-15 colon | HL-60(TB) leukemia | HOP-62 NSCLC | HOP-92 NSCLC | HS 578T breast | HT29 colon | IGROV1 ovarian | K-562 leukemia | KM12 colon | LOX IMVI melanoma | M14 melanoma | MALME-3M melanoma | MCF7 breast | MDA-MB-435 | MDA-N | MOLT-4 leukemia | NCI-H226 lung | NCI-H23 lung | NCI-H460 lung | NCI-H522 lung | NCI/ADR-RES ovarian | OVCAR-3 ovarian | OVCAR-4 ovarian | OVCAR-5 ovarian | PC-3 prostate | RPMI-8226 leukemia | RXF 393 renal | SF-268 CNS | SF-295 CNS | SF-539 CNS | SK-MEL-2 melanoma | SK-MEL-28 melanoma | SK-MEL-5 melanoma | SK-OV-3 ovarian | SN12C renal | SNB-19 CNS | SR leukemia | SW-620 colon | T-47D breast | TK-10 renal | U251 CNS | UACC-257 melanoma | UACC-62 melanoma | UO-31 renal

CN1CCCC1=NC#N
> 100 µM: 786-0 renal | A498 renal | A549 NSCLC | ACHN renal | CAKI-1 renal | CCRF-CEM leukemia | COLO 205 colon | DU-145 prostate | EKVX NSCLC | HCC-2998 colon | HCT-116 colon | HCT-15 colon | HL-60(TB) leukemia | HOP-62 NSCLC | HS 578T breast | HT29 colon | IGROV1 ovarian | K-562 leukemia | KM12 colon | LOX IMVI melanoma | M14 melanoma | MALME-3M melanoma | MCF7 breast | MDA-MB-231 breast | MDA-MB-435 | MDA-N | MOLT-4 leukemia | NCI-H226 lung | NCI-H23 lung | NCI-H460 lung | NCI-H522 lung | NCI/ADR-RES ovarian | OVCAR-3 ovarian | OVCAR-4 ovarian | OVCAR-5 ovarian | OVCAR-8 ovarian | PC-3 prostate | RPMI-8226 leukemia | RXF 393 renal | SF-268 CNS | SF-295 CNS | SF-539 CNS | SK-MEL-2 melanoma | SK-MEL-28 melanoma | SK-MEL-5 melanoma | SK-OV-3 ovarian | SN12C renal | SNB-19 CNS | SNB-75 CNS | SR leukemia | SW-620 colon | T-47D breast | TK-10 renal | U251 CNS | UACC-62 melanoma | UO-31 renal
